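48-hour exposure; five concentrations; linearly interpolated endpoints. At the TGI there is no net growth.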
Assays:
Test in all cases: DTP human tumour cell line panel, 48 h
SK-OV-3 ovarian = test system: SK-OV-3 ovarian
COLO 205 colon = test system: COLO 205 colon
TK-10 renal = test system: TK-10 renal
SF-295 CNS = test system: SF-295 CNS
SR leukemia = test system: SR leukemia

| Compound | TGI (SK-OV-3 ovarian) | TGI (COLO 205 colon) | TGI (TK-10 renal) | TGI (SF-295 CNS) | TGI (SR leukemia) |
| --- | --- | --- | --- | --- | --- |
| CCc1c(CN)c(CC)c(CNC2=NCCN2)c(CC)c1CNC1=NCCN1 | > 100 µM | > 100 µM | > 100 µM | > 100 µM | > 100 µM |
| COc1ccc(N=C2S/C(=N\C(=Nc3ccccc3)SCc3ccccc3)N(c3ccccc3)C2=Nc2ccc(OC)cc2)cc1 |  | > 100 µM | > 100 µM |  | > 100 µM |
| FC(F)(F)c1ccc(Cc2nc3cc4ccccc4cc3[nH]2)cc1 |  | > 100 µM | > 100 µM | > 100 µM |  |
| Cc1ccc(S(=O)(=O)N2CCN(S(=O)(=O)c3ccc(C)cc3)CCN(S(=O)(=O)c3ccc(C)cc3)Cc3cc(C#N)c(C#N)cc3CN(S(=O)(=O)c3ccc(C)cc3)CC2)cc1 | > 100 µM | > 100 µM | > 100 µM | > 100 µM | > 100 µM |
| Nc1ccc2nc3c(nc2c1)C(=O)c1ccccc1-3 | > 100 µM | > 100 µM | > 100 µM | > 100 µM |  |
| O=[N+]([O-])c1ccc(-c2cc(O)c3nc4ccccc4n3c2)cc1 | > 100 µM | > 100 µM | > 100 µM | > 100 µM | > 100 µM |
| Cc1ccc(/C=N/n2c(Cc3ccccc3)n[nH]c2=O)cc1 |  | > 100 µM | > 100 µM | > 100 µM | > 100 µM |
| O=[N+]([O-])c1ccc2nc(Cl)n[n+]([O-])c2c1 | 31.4 µM | 25.2 µM | 30.8 µM | 47.9 µM | 4.93 µM |
| O=C(NC(Cl)(C(F)(F)F)C(F)(F)F)c1ccc(F)cc1 | > 100 µM | > 100 µM | > 100 µM | > 100 µM | > 100 µM |
| CN(C)CCCC1c2ccccc2Oc2ccc(C(F)(F)F)cc21 (centres undefined) | 30.7 µM | 17.7 µM | 29.3 µM | 31.6 µM | 24.5 µM |
| Clc1c(Cl)c(Cl)c2c(nnn2C2CCCO2)c1Cl (centres undefined) | > 100 µM | 47.4 µM | > 100 µM | > 100 µM | 91.4 µM |
| CCOP(=O)(C=C=C1CCC2[C@@H]3CCc4cc(OC)ccc4C3CC[C@]12C)OCC (some centres undefined) | 31.8 µM | 22.7 µM | 25.6 µM | 19.7 µM |  |
| COc1cc(C(=O)/C=C/c2ccc(OCCSCCCCCCCCCCSCCOc3ccc(/C=C/C(=O)c4cc(OC)c(OC)c(OC)c4)cc3)cc2)cc(OC)c1OC |  | > 100 µM | > 100 µM | > 100 µM | > 100 µM |
| CCOC(=O)CCC(NC(=O)Cc1ccc(Nc2nc3ccccc3nc2-c2cccs2)cc1)C(=O)OCC (centres undefined) | > 100 µM | > 100 µM | 84.5 µM | > 100 µM | > 100 µM |
| Cn1c2ccccc2n2c3ncccc3c(=NCCCC(=O)O)c(C#N)c12 | > 100 µM | > 100 µM |  | > 100 µM | > 100 µM |
| CCCCCCCCCCCCCCCCCCNc1ccn(C2OC(COP(=O)(O)OCC3OC(n4cc(C)c(=O)[nH]c4=O)CC3F)C(O)C2O)c(=O)n1 (centres undefined) | 18 µM | 9.53 µM | 9.9 µM | 41.9 µM | 5.14 µM |
| CCOP(=O)(OCC)C(C)(C)N(C)/C(F)=N/C(F)(F)F | > 100 µM | > 100 µM | > 100 µM | > 100 µM | > 100 µM |
| CC(C)C1OC(N)=C(C#N)C1(C#N)C#N (centres undefined) | > 100 µM | > 100 µM | > 100 µM | > 100 µM |  |

| Compound | TGI (SK-OV-3 ovarian) | TGI (COLO 205 colon) | TGI (TK-10 renal) | TGI (SF-295 CNS) | TGI (SR leukemia) |
| --- | --- | --- | --- | --- | --- |
| Clc1ccc(Nc2nnc(CCCCCCCCc3nnc(Nc4ccc(Cl)cc4)o3)o2)cc1 | > 100 µM | > 100 µM | > 100 µM | > 100 µM |  |
| CC(=O)OCC(OC(C)=O)C(OC(C)=O)C(/C=N\Nc1nc2ccccc2c(=O)[nH]1)=N\Nc1nc2ccccc2c(=O)[nH]1 (centres undefined) | > 100 µM | > 100 µM |  | > 100 µM | > 100 µM |
| Oc1cc(O)c2ccc(-c3ccc(O)c(O)c3)[o+]c2c1 | > 100 µM |  | > 100 µM |  |  |
| O=C1c2cccnc2S(=O)(=O)N1c1ccc(Oc2ccccc2)cc1 | > 100 µM | > 100 µM |  | > 100 µM | > 100 µM |
| Cc1ccc(S(=O)(=O)CN2C(=O)C(c3ccccc3)(c3ccccc3)C23OC(c2ccc(Cl)cc2)=CC3=O)cc1 (centres undefined) | > 10 µM | > 10 µM | > 10 µM | > 10 µM |  |
| O=C(O)CSCc1cc2c(O)c(c1)Cc1cc(CSCC(=O)O)cc(c1O)Cc1cc(CSCC(=O)O)cc(c1O)Cc1cc(CSCC(=O)O)cc(c1O)C2 | > 100 µM | > 100 µM | > 100 µM | > 100 µM | > 100 µM |
| C[Si](C)(C)C#Cc1cc(-c2nc3ccccc3s2)ccc1N | 41.9 µM | 29.5 µM | 26.2 µM | 33.7 µM | 67.8 µM |
| S=C(NNC1=NCCCCN1)Nc1ccc(Cl)cc1 | 93.1 µM | 34.5 µM | > 100 µM | 57.5 µM | 60.9 µM |
| COC(=O)c1c(C)cccc1C1CN=NC12Cc1ccccc1C2=O (centres undefined) | > 100 µM | > 100 µM | > 100 µM | > 100 µM | > 100 µM |
| OCc1cc2c(ccc3sc4ccc5sc6ccc7ncccc7c6c5c4c32)s1 | 39.9 µM | 21.3 µM | > 100 µM | 27.7 µM | > 100 µM |
| CC(C)(C)c1cc(-c2cc(C(C)(C)C)[nH]n2)n[nH]1 | > 100 µM | > 100 µM | > 100 µM | > 100 µM | > 100 µM |
| O=C1NC(=S)N/C1=C\c1cc2c(=O)c3ccccc3sc2s1 |  | > 100 µM | > 100 µM | > 100 µM | > 100 µM |
| O=P1(Oc2ccccc2)N=P(c2ccccc2)(c2ccccc2)C=C(c2ccc(Cl)cc2)N1 (centres undefined) | 26 µM | 17.1 µM | 26.8 µM | 19.8 µM | 21.5 µM |
| N#Cc1cnc(-n2[nH]c3c(c2=O)CCCC3)[nH]c1=O | > 100 µM | > 100 µM | > 100 µM | > 100 µM | > 100 µM |
| N#CC(N)c1ccc(OCCCCCCCCCCOc2ccc(C(N)C#N)cc2)cc1 (centres undefined) | > 100 µM | > 100 µM | > 100 µM | > 100 µM |  |
| O=C(c1cc2ccccc2[nH]1)N1C2CCC1CN(CCOC(c1ccc(F)cc1)c1ccc(F)cc1)CC2 (centres undefined) | > 100 µM | > 100 µM | > 100 µM | > 100 µM |  |
| Cc1ccc2c(=O)cc(Cc3cccs3)[nH]c2n1 | > 100 µM | > 100 µM | > 100 µM | > 100 µM |  |

Reference: PubChem BioAssay (NCI)
